Test [1] in a line: Cytotoxicity against human SGC7901 cells assessed as growth inhibition after 48 hrs by MTT assay. It counts as functional, cell-based. The settings on record: SGC-7901, 48 h.
For a further test, the system named is KB. Put plainly: Cytotoxicity against human KB cells assessed as growth inhibition after 48 hrs by MTT assay. It is filed as functional, cell-based. (Tetrazolium dyes change colour on reduction, which living cells bring about.)
The nature of test [2]: Cytotoxicity against human HT1080 cells assessed as growth inhibition after 48 hrs by MTT assay. The conditions noted are these: HT-1080, 48 h. It counts as functional, cell-based.
A short description of test [3]: Cell cycle arrest in human HT1080 cells assessed as accumulation at G0/G1 phase at 0.5 times IC50 after 24 hrs by propidium iodide staining-based flow cytometric analysis (reference value: 49.18%). It counts as functional. The conditions noted are these: HT-1080. For orientation: Flow cytometry measures light scatter and fluorescence of single cells or particles in a stream.

The nature of test [4]: Cell cycle arrest in human HT1080 cells assessed as accumulation at S phase at 0.5 times IC50 after 24 hrs by propidium iodide staining-based flow cytometric analysis (reference value: 21.01%). It is filed as functional. The settings on record: HT-1080.
The nature of test [5]: Cell cycle arrest in human HT1080 cells assessed as accumulation at G2/M phase at 0.5 times IC50 after 24 hrs by propidium iodide staining-based flow cytometric analysis (reference value: 23.71%). It counts as functional. The settings on record: HT-1080.
Test [6] is described as follows: Cell cycle arrest in human HT1080 cells assessed as accumulation at subG1 phase at 0.5 times IC50 after 24 hrs by propidium iodide staining-based flow cytometric analysis (reference value: 0.82%). The conditions noted are these: HT-1080. It counts as functional.
A short description of test [7]: Cell cycle arrest in human HT1080 cells assessed as accumulation at G0/G1 phase at IC50 after 24 hrs by propidium iodide staining-based flow cytometric analysis (reference value: 49.18%). It is filed as functional. The settings on record: HT-1080.
Test [8] can be described thus: Cell cycle arrest in human HT1080 cells assessed as accumulation at S phase at IC50 after 24 hrs by propidium iodide staining-based flow cytometric analysis (reference value: 21.01%). It counts as functional. The settings on record: HT-1080.
Test [9] in a line: Cell cycle arrest in human HT1080 cells assessed as accumulation at G2/M phase at IC50 after 24 hrs by propidium iodide staining-based flow cytometric analysis (reference value: 23.71%). It counts as functional. The settings on record: HT-1080.
Test [10] can be described thus: Cell cycle arrest in human HT1080 cells assessed as accumulation at subG1 phase at IC50 after 24 hrs by propidium iodide staining-based flow cytometric analysis (reference value: 0.82%). The settings on record: HT-1080. It is filed as functional.
Test [11] is described as follows: Cell cycle arrest in human HT1080 cells assessed as accumulation at G0/G1 phase at 2 times IC50 after 24 hrs by propidium iodide staining-based flow cytometric analysis (reference value: 49.18%). It counts as functional. The conditions noted are these: HT-1080.
Test [12] in a line: Cell cycle arrest in human HT1080 cells assessed as accumulation at S phase at 2 times IC50 after 24 hrs by propidium iodide staining-based flow cytometric analysis (reference value: 21.01%). It counts as functional. The conditions noted are these: HT-1080.
Test [13] is described as follows: Cell cycle arrest in human HT1080 cells assessed as accumulation at G2/M phase at 2 times IC50 after 24 hrs by propidium iodide staining-based flow cytometric analysis (reference value: 23.71%). It is filed as functional. The conditions noted are these: HT-1080.
Test [14] is described as follows: Cell cycle arrest in human HT1080 cells assessed as accumulation at subG1 phase at 2 times IC50 after 24 hrs by propidium iodide staining-based flow cytometric analysis (reference value: 0.82%). It counts as functional. The settings on record: HT-1080.
Test [15] can be described thus: Cell cycle arrest in human HT1080 cells assessed as accumulation at G0/G1 phase at 0.5 times IC50 after 48 hrs by propidium iodide staining-based flow cytometric analysis (reference value: 41.60%). The settings on record: HT-1080. It is filed as functional.
A short description of test [16]: Cell cycle arrest in human HT1080 cells assessed as accumulation at S phase at 0.5 times IC50 after 48 hrs by propidium iodide staining-based flow cytometric analysis (reference value: 15.11%). It is filed as functional. The conditions noted are these: HT-1080.
Test [17] in a line: Cell cycle arrest in human HT1080 cells assessed as accumulation at G2/M phase at 0.5 times IC50 after 48 hrs by propidium iodide staining-based flow cytometric analysis (reference value: 31.39%). It is filed as functional. The conditions noted are these: HT-1080.
Test [18] is described as follows: Cell cycle arrest in human HT1080 cells assessed as accumulation at subG1 phase at 0.5 times IC50 after 48 hrs by propidium iodide staining-based flow cytometric analysis (reference value: 1.86%). It is filed as functional. The conditions noted are these: HT-1080.
Test [19] in a line: Cell cycle arrest in human HT1080 cells assessed as accumulation at G0/G1 phase at IC50 after 48 hrs by propidium iodide staining-based flow cytometric analysis (reference value: 41.60%). It is filed as functional. The conditions noted are these: HT-1080.
Test [20] in a line: Cell cycle arrest in human HT1080 cells assessed as accumulation at S phase at IC50 after 48 hrs by propidium iodide staining-based flow cytometric analysis (reference value: 15.11%). The settings on record: HT-1080. It is filed as functional.
Test [21] is described as follows: Cell cycle arrest in human HT1080 cells assessed as accumulation at G2/M phase at IC50 after 48 hrs by propidium iodide staining-based flow cytometric analysis (reference value: 31.39%). The conditions noted are these: HT-1080. It is filed as functional.
Test [22] in a line: Cell cycle arrest in human HT1080 cells assessed as accumulation at subG1 phase at IC50 after 48 hrs by propidium iodide staining-based flow cytometric analysis (reference value: 1.86%). It counts as functional. The settings on record: HT-1080.
A short description of test [23]: Cell cycle arrest in human HT1080 cells assessed as accumulation at G0/G1 phase at 2 times IC50 after 48 hrs by propidium iodide staining-based flow cytometric analysis (reference value: 41.60%). The conditions noted are these: HT-1080. It counts as functional.
The nature of test [24]: Cell cycle arrest in human HT1080 cells assessed as accumulation at S phase at 2 times IC50 after 48 hrs by propidium iodide staining-based flow cytometric analysis (reference value: 15.11%). It counts as functional. The conditions noted are these: HT-1080.
The nature of test [25]: Cell cycle arrest in human HT1080 cells assessed as accumulation at G2/M phase at 2 times IC50 after 48 hrs by propidium iodide staining-based flow cytometric analysis (reference value: 31.39%). It counts as functional. The conditions noted are these: HT-1080.
The nature of test [26]: Cell cycle arrest in human HT1080 cells assessed as accumulation at subG1 phase at 2 times IC50 after 48 hrs by propidium iodide staining-based flow cytometric analysis (reference value: 1.86%). It is filed as functional. The settings on record: HT-1080.
Test [27] is described as follows: Cell cycle arrest in human HT1080 cells assessed as accumulation at G0/G1 phase after 24 to 48 hrs by propidium iodide staining-based flow cytometric analysis. It is filed as functional. The settings on record: HT-1080.
Test [28] is described as follows: Cell cycle arrest in human HT1080 cells assessed as accumulation at G0/G1 phase at 0.5 to 2 times IC50 by propidium iodide staining-based flow cytometric analysis. The settings on record: HT-1080, TDE = time-dependent effect. It is filed as functional.
A short description of test [29]: Cell cycle arrest in human HT1080 cells assessed as accumulation at G0/G1 phase after 24 hrs by propidium iodide staining-based flow cytometric analysis. It counts as functional. The settings on record: HT-1080.

Broadly, the IC50 is the concentration that inhibits the measured activity by half. Regarding `CC[C@H]1OC(=O)[C@H](C)[C@@H](O[C@H]2C[C@@](C)(OC)[C@@H](O)[C@H](C)O2)[C@H](C)[C@@H](O[C@@H]2O[C@H](C)C[C@H](N(C)CCN(C)[C@H]3C[C@@H](C)O[C@@H](O[C@@H]4[C@@H](C)[C@H](O[C@H]5C[C@@](C)(OC)[C@@H](O)[C@H](C)O5)[C@@H](C)C(=O)O[C@H](CC)[C@@](C)(O)[C@H](O)[C@@H](C)/C(=N\O)[C@H](C)C[C@@]4(C)OC)[C@@H]3O)[C@H]2O)[C@](C)(OC)C[C@@H](C)/C(=N/O)[C@H](C)[C@@H](O)[C@]1(C)O`, the results for the IC50 (in [1]; with KB; in test [2]) were 7.8 µM, 4.4 µM and 5.3 µM, respectively. The Activity in test [3] turned out to be 62%; in test [4], 18.1%; in [5], 17.4%; in test [6], 0.6%; in test [7], 62.7%; in [8] it was 15.9%. For the same molecule, the Activity turned out to be 18.5% in test [9]; 0.77% in test [10]; 75.1% in test [11]; 10.8% in test [12]; 11.9% in test [13]; 0.85% in test [14]. For the same molecule, the Activity worked out at 67.6% in [15]; 13.7% in [16]; 15.3% in [17]; 0.75% in test [18]; 71.9% in [19]; 12.6% in [20]. Besides, the Activity in test [21] is 12.8%; in [22], 0.77%; in test [23], 74.5%; in [24] it was 11.5%; in test [25], 10.1%; in test [26], 2.47%. For the same molecule, the figures for the Activity result in [27] and in test [28] were “Dose-dependent effect” and “tde”, respectively.
Consider `CC[C@H]1OC(=O)[C@H](C)[C@@H](O[C@H]2C[C@@](C)(OC)[C@@H](O)[C@H](C)O2)[C@H](C)[C@@H](O[C@@H]2O[C@H](C)C[C@H](N(C)CCN(C)[C@H]3C[C@@H](C)O[C@@H](O[C@@H]4[C@@H](C)[C@H](O[C@H]5C[C@@](C)(OC)[C@@H](O)[C@H](C)O5)[C@@H](C)C(=O)O[C@H](CC)[C@@](C)(O)[C@H](O)[C@@H](C)/C(=N\O)[C@H](C)C[C@@]4(C)O)[C@@H]3O)[C@H]2O)[C@](C)(O)C[C@@H](C)/C(=N/O)[C@H](C)[C@@H](O)[C@]1(C)O`, for which the Activity result in test [29] was “Dose-dependent effect”; in [3], 66%; in test [4] it was 16.5%; in test [5] it was 14.4%; in test [6], 1.41%; in test [7] it was 71.2%. Moreover, the Activity in test [8] is 13.9%; in [9], 11.5%; in [10], 2.01%; in [11] it was 66.6%; in test [12] it was 11.1%; in test [13] it was 12.5%. The Activity in test [14] worked out at 8.14%; in test [15] it was 80%; in test [16] it was 6.94%; in [17], 10.1%; in [18], 1.34%; in test [19], 77.3%. The Activity came out at 9.35% in [20]; 10.8% in test [21]; 1.34% in [22]; 48.7% in [23]; 14.8% in test [24]; 17.9% in test [25]. In addition, the Activity in test [26] amounted to 15.7%. Further, the figures for the IC50 (in test [1]; in the test on KB; in [2]) were 21.7 µM, 6.2 µM and 8.6 µM, respectively.
For `CC[C@H]1OC(=O)[C@H](C)[C@@H](O[C@H]2C[C@@](C)(OC)[C@@H](O)[C@H](C)O2)[C@H](C)[C@@H](O[C@@H]2O[C@H](C)C[C@H](N(C)CCN(C)[C@H]3C[C@@H](C)O[C@@H](O[C@@H]4[C@@H](C)[C@H](O[C@H]5C[C@@](C)(OC)[C@@H](O)[C@H](C)O5)[C@@H](C)C(=O)O[C@H](CC)[C@@](C)(O)[C@H](O)[C@@H](C)/C(=N\OCc5cc(OC)c(OC)c(OC)c5)[C@H](C)C[C@@]4(C)OC)[C@@H]3O)[C@H]2O)[C@](C)(OC)C[C@@H](C)/C(=N/OCc2cc(OC)c(OC)c(OC)c2)[C@H](C)[C@@H](O)[C@]1(C)O`, the 50% inhibitory concentration (IC50) was 20 µM in test [1], 20.1 µM in the test on KB and 10.3 µM in test [2].

The record behind these values is ChEMBL document CHEMBL3217717, “Synthesis and antiproliferative activity of novel erythromycin derivatives” (Medchemcomm, 2010).
